Experimental data as given in the NIST ThermoML archive (doi:10.1021/je400231q).
± gives the expanded uncertainty stated by the source.

Settings: 101.33 kPa, Liquid, Vibrating tube method

A mass density (293.15 K) of 894 ± 11 kg/m3, a mass density (298.15 K) of 890.8 ± 11 kg/m3 and a mass density (303.15 K) of 887.7 ± 11 kg/m3 were found for CC(CC(C)(C)C)CP(=O)([O-])CC(C)CC(C)(C)C.CCCCCCCCCCCCCC[P+](CCCCCC)(CCCCCC)CCCCCC in this work. The mass density (308.15 K) was 884.6 ± 11 kg/m3, the mass density (313.15 K) was 881.5 ± 11 kg/m3 and the mass density (318.15 K) was 878.4 ± 11 kg/m3. It also gave a mass density (323.15 K) of 875.3 ± 11 kg/m3 and a mass density (328.15 K) of 872.3 ± 11 kg/m3.

A mass density (293.15 K) of 1236.7 ± 13 kg/m3, a mass density (298.15 K) of 1233.2 ± 12 kg/m3 and a mass density (303.15 K) of 1229.8 ± 12 kg/m3 were found for CCOS(=O)(=O)[O-].CCn1cc[n+](C)c1 [1-ethyl-3-methylimidazolium ethyl sulfate] in this work. It also gave a mass density (308.15 K) of 1226.3 ± 12 kg/m3, a mass density (313.15 K) of 1222.9 ± 12 kg/m3 and a mass density (318.15 K) of 1219.5 ± 12 kg/m3. It also gave a mass density (323.15 K) of 1216.2 ± 12 kg/m3 and a mass density (328.15 K) of 1212.8 ± 12 kg/m3.

A mass density (293.15 K) of 1101.5 ± 12 kg/m3, a mass density (298.15 K) of 1098.3 ± 12 kg/m3 and a mass density (303.15 K) of 1095.1 ± 12 kg/m3 were found for CC(=O)[O-].CCn1cc[n+](C)c1 [1-ethyl-3-methylimidazolium acetate] in this work. It also gave a mass density (308.15 K) of 1092 ± 12 kg/m3, a mass density (313.15 K) of 1088.9 ± 12 kg/m3 and a mass density (318.15 K) of 1085.8 ± 12 kg/m3. The mass density (323.15 K) was 1082.8 ± 12 kg/m3 and the mass density (328.15 K) was 1079.7 ± 12 kg/m3.

A mass density (293.15 K) of 1347.2 ± 14 kg/m3, a mass density (298.15 K) of 1344.3 ± 14 kg/m3 and a mass density (303.15 K) of 1341.4 ± 13 kg/m3 were found for COS(=O)(=O)[O-].C[N+](CCO)(CCO)CCO [tris(2-hydroxyethyl) methylammonium methylsulfate] in this work. The mass density (308.15 K) was 1338.5 ± 13 kg/m3, the mass density (313.15 K) was 1335.7 ± 13 kg/m3 and the mass density (318.15 K) was 1332.9 ± 13 kg/m3. It also gave a mass density (323.15 K) of 1330.2 ± 13 kg/m3 and a mass density (328.15 K) of 1327.4 ± 13 kg/m3.

A mass density (293.15 K) of 1244.4 ± 13 kg/m3, a mass density (298.15 K) of 1240.9 ± 13 kg/m3 and a mass density (303.15 K) of 1237.4 ± 13 kg/m3 were found for CCn1cc[n+](C)c1.CS(=O)(=O)[O-] [1-ethyl-3-methylimidazolium methanesulfonate] in this work. The mass density (308.15 K) was 1233.9 ± 12 kg/m3, the mass density (313.15 K) was 1230.5 ± 12 kg/m3 and the mass density (318.15 K) was 1227 ± 12 kg/m3. For the same compound, the mass density (323.15 K) was 1223.7 ± 12 kg/m3 and the mass density (328.15 K) was 1220.3 ± 12 kg/m3.

A mass density (293.15 K) of 1119.2 ± 12 kg/m3, a mass density (298.15 K) of 1116.1 ± 12 kg/m3 and a mass density (303.15 K) of 1113 ± 12 kg/m3 were found for CCn1cc[n+](C)c1.N#C[S-] [1-ethyl-3-methylimidazolium thiocyanate] in this work. For the same compound, the mass density (308.15 K) was 1109.9 ± 12 kg/m3, the mass density (313.15 K) was 1106.9 ± 12 kg/m3 and the mass density (318.15 K) was 1103.8 ± 12 kg/m3. The mass density (323.15 K) was 1100.8 ± 12 kg/m3 and the mass density (328.15 K) was 1097.8 ± 12 kg/m3.
